Where two headings read alike, the source gives them in different places. Where only a bound is given, the exact number is not on record here.

Assay [1] concerns the target T1, human dopamine D2 receptor (Homo sapiens, UniProt P14416).
T1 construct: accorded to it of human dopamine D2 receptor (NM1-000795) registered on NCBI completely; expressed in transfected cells; membrane homogenates
Description: Stimulating activities on human dopamine D2 receptor, [35S]GTPγS binding to hD2R#7 cell membrane homogenates. Format: biochemical. The note with it: [35S]GTPγS binding, membrane homogenates of HEK293 cells stably expressing human D2 receptor; mean, n=2; read-out: EC50. The method, then:
Identification Test of Stimulating Activities on Human Dopamine D2 Receptor
4) Preparation of Membrane Homogenates from hD2R#7 Cells
(2) Preparation of Membrane Homogenates from hD2R#7 Cells
The cells, which were grown to confluence in 150 mm dishes (IWAKI), were harvested with isotonic buffer (50 mM Tris (Sigma), 2 mM ethylenediamine-tetraacetic acid (Invitrogen), and 125 mM sodium chloride (Wako Pure Chemicals), pH 7.4) and centrifuged at 1880×g and 4° C. for 10 minutes, and the cell pellets were then suspended in isotonic buffer. After being subjected to one cycle of freezing and thawing, the cells were centrifuged at 1880×g and 4° C. for 10 minutes, and the cell pellets were suspended in isotonic buffer. The cells were centrifuged at 1880×g and 4° C. for 10 minutes, and the cell pellets were suspended in isotonic buffer and homogenate buffer (10 mM sodium bicarbonate (Nacalai) and 5 mM ethylenediamine-tetraacetic acid, pH 7.5). The volume ratio of isotonic-to-homogenate buffer was 2. The cells were sonicated and centrifuged at 1880×g and 4° C. for 10 minutes, and the supernatants were ultracentrifuged at 80000×g and 4° C. for 30 minutes. The final cell pellets were suspended in homogenate buffer containing protease inhibitor cocktail (Nacalai) and stored at −80° C. until use. The protein concentration was determined using BCA Protein Assay Kit (Pierce) in accordance with the manufacturer's instructions.
5) Determination of Stimulating Activities of Human Dopamine D2 Receptor
The stimulating activities of human dopamine D2 receptor was determined by measuring the binding potential of [^35S]-guanosine 5′-[gamma-thio]triphosphate ([^35S]GTPγS, PerkinElmer) according to the method described by Newman-Tancredi A. et al. (Naunyn-Schmiedeberg's Arch Pharmacol, 1999, vol. 359, pp. 447-453) with a minor modification. Test compounds and dopamine hydrochloride (Fluka) as positive control were dissolved in dimethyl sulfoxide (CARLBIOCHEM), resulting in 30 mM. The both compounds were diluted with assay buffer (50 mM Tris, 100 mM sodium chloride, 5 mM magnesium chloride (Nacalai), 1 mM ethylenediamine-tetraacetic acid, 1 mM dithiothreitol (Wako Pure Chemicals), 10 μM guanosine diphosphate (Wako Pure Chemicals) and 0.5% bovine serum albumin (Sigma), pH 7.4) to a final concentration of 100 pM (only test compounds), 1 nM, 10 nM, 100 nM, 1 μM, 10 μM and 100 μM (only dopamine hydrochloride). The above membrane homogenates and [^35S]GTPγS were diluted with assay buffer to a final concentration of 0.06 mg/mL and 0.6 nM, respectively. The serial diluted compounds (50 μL), the diluted membrane homogenates (50 μL) and the diluted [^35S]GTPγS (50 μL) were mixed on multi-screen 96-well plate (Millipore) and shaken lightly at room temperature for 60 minutes. The reaction was terminated by vacuum filtration with three times washes of ice-cold wash buffer (50 mM Tris, 100 mM sodium chloride, 5 mM magnesium chloride, and 1 mM ethylenediamine-tetraacetic acid, pH 7.4). After drying the bottoms of the plate at 60° C., MicroScinti-40 (PerkinElmer) (30 μL) was added in the plate. The tops of the plate were sealed by TopSeal-A (PerkinElmer), and the radioactivity was determined in a TopCount NXT (registered mark) (PerkinElmer) after shaking lightly for 5-10 minutes. The data was analyzed by nonlinear regression and sigmoidal dose-response curve fitting using GraphPad PRISM 4.0 (GraphPad Software), and values of EC50 (concentration of the compound producing half the maximal effect of the compound) were calculated. The data was presented as mean value (n=2).

The target of assay [2] is T2, human serotonin 5-HT2B receptor (Homo sapiens, UniProt P41595).
T2 construct: expressed in transfected cells; host or cells: HEK293, transient transfection (Lipofectamine 2000)
Description: Stimulating activities on human serotonin 5-HT2B receptor, intracellular calcium in forced expression HEK293 cells. Type of assay: cell-based. The protocol: Identification Test of Stimulating Activities on Human Serotonin 5-HT2B Receptor
The PCR was performed using forward primer depicted as sequence ID No. 4, reverse primer depicted as sequence ID No. 5 and KOD-Plus-Ver.2 (TOYOBO) as template of human brain hippocampus cDNA (Clontech). The PCR product was inserted into a plasmid (pcDNA3.1/V5-His-Topo (registered mark)). The PCR product-inserted plasmid was transformed in E. coli (One Shot TOP10 Chemically Competent). That E. coli was incubated in LB agar medium contained 50 μg/mL ampicillin for a day. A selected colony was incubated in LB medium contained 50 μg/mL ampicillin and PCR product-inserted plasmid was purified with QIAprep Spin Miniprep Kit (QIAGEN).
Mostly confluent HEK293 cells were washed with PBS, followed by exfoliation with 0.05% trypsin-EDTA and the cells were suspended in D-MEM liquid medium (phenol red-free, low glucose, pyruvic acid were contained) containing fetal bovine serum (final concentration: 10%) and GlutaMax (registered mark)I (final concentration: 2 mM). The suspension was scattered at 5×10^4 cells/100 L/well on poly-D-lysine-coated 96-well microplate (BD BioCoat (registered mark)). The scattered cells were cultured in 5% CO2 incubator at 37° C. Human serotonin 5-HT2B receptor expression plasmid was transfected in that cells according to the procedure seeing below.
Human serotonin 5-HT2B receptor expression plasmid and Lipofectamine (registered mark) 2000 (Invitrogen) were diluted to 0.008 g/L and 0.016 g/L each other with OPTI-MEM (registered mark)I Reduced-Serum Medium and incubated at room temperature. After incubation, the human serotonin 5-HT2B receptor exoression plasmid-diluted liquid and Lipofectamine (registered mark) 2000-diluted liquid were mixed at an equal volume and incubated at room temperature to form a complex. The complex was dispensed at 50 μL/well on the cells prepared above. The cells were incubated in 5% CO2 incubator at 37° C. for 2 days. After incubation, the cells were used as human serotonin 5-HT2B receptor forced expression cells for measurement of intracellular calcium concentration.
3) Determination of Stimulating Activities of Human Serotonin 5-HT2B Receptor
The stimulating activities of human serotonin 5-HT2B receptor was determined by measuring of intracellular calcium concentration. The 30 mM dimethyl sulfoxide (DMSO) solution contained test compounds or serotonin hydrochloride (Sigma) as positive control, was diluted with assay buffer ((HBSS), 20 mM HEPES, 1.3 mM calcium chloride, 0.5 mM magnesium chloride and 0.4 mM magnesium sulfate were contained, pH7.4) to appropriate concentration.
The forced expression cells were washed with assay buffer, and 100 μL/well of fluorescent calcium indicator (Fluo-4 NW Calcium Assay Kit) was added and incubated in 5% CO2 incubator at 37° C. After incubation, 50 μL/well of each test compound was added, and the concentration of intracellular calcium was measured as fluorescent signal with FlexStation (registered mark) II (Molecular Devices). The data was analyzed by nonlinear regression and sigmoidal dose-response curve fitting using GraphPad PRISM 4.0, and values of EC50 (concentration of the compound producing half the maximal effect of the compound) were calculated. The data was presented as mean value (n=2).
On the technique in general: Calcium assays in cells follow changes in intracellular calcium, usually with a dye or a luminescent sensor.

[3] abbreviates: intracellular calcium (Fluo-4), HEK293 cells transiently expressing human 5-HT2B receptor, mean, n=2, read-out: EC50.

T2 sequence (P41595 whole entry): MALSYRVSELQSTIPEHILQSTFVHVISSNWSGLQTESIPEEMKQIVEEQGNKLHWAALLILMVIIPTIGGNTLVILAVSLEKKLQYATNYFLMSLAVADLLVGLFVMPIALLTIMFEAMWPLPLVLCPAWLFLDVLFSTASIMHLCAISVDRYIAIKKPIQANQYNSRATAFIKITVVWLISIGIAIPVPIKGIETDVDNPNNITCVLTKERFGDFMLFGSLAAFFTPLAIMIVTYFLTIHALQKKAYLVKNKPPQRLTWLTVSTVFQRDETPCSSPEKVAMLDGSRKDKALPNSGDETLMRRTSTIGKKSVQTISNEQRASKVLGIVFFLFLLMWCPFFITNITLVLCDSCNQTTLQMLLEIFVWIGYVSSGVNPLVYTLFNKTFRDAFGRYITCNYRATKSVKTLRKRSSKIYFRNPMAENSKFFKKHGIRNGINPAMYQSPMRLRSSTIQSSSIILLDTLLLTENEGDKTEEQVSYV
T1 sequence (P14416 whole entry): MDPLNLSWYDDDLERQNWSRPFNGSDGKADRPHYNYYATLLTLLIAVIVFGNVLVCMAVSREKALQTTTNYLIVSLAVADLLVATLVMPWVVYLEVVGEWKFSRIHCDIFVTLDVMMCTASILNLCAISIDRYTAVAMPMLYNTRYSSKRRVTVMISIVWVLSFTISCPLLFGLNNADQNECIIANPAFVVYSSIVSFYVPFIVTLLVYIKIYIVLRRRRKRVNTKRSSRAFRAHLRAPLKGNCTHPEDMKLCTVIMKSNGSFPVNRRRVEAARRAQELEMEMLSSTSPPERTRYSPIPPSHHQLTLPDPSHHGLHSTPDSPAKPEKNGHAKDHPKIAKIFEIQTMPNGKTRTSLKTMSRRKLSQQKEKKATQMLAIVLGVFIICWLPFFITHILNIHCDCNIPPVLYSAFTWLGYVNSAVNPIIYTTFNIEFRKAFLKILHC

On to `CCCCN(C(=O)NCCN(C)C)C(=O)[C@@H]1C[C@@H]2Cc3c(sc(N)c3C#N)C[C@H]2N(C)C1` (relative stereo) [1-24, 1-{[(4aR*,6R*,8aR*)-2-amino-3-cyano-8-methyl-4H,4aH,5H,6H,7H,8H,8aH,9H-thieno[3,2-g]quinolin-6-yl]carbonyl}-1-butyl-3-[2-(dimethylamino)ethyl]urea], for which the EC50 (commonly the concentration at which the effect is half-maximal) is 17 nM in assay [1] and greater than 10000 nM in assay [2] (setting [3]).
`CC(C)CCN(C(=O)NCCN(C)C)C(=O)[C@@H]1C[C@@H]2Cc3c(sc(N)c3C#N)C[C@H]2N(C)C1` (relative stereo) [1-43, 1-{[(4aR*,6R*,8aR*)-2-amino-3-cyano-8-methyl-4H,4aH,5H,6H,7H,8H,8aH,9H-thieno[3,2-g]quinolin-6-yl]carbonyl}-3-[2-(dimethylamino)ethyl]-1-(3-methylbutyl)urea]: the values for the EC50 in assay [1] and in assay [2] (setting [3]) were 32 nM and greater than 10000 nM, respectively.
The matching figures for `CCCCN(C(=O)NCCN1CCCCC1)C(=O)[C@@H]1C[C@@H]2Cc3c(sc(N)c3C#N)C[C@H]2N(C)C1` (relative stereo) [1-46, 1-{[(4aR*,6R*,8aR*)-2-amino-3-cyano-8-methyl-4H,4aH,5H,6H,7H,8H,8aH,9H-thieno[3,2-g]quinolin-6-yl]carbonyl}-1-butyl-3-[2-(piperidin-1-yl)ethyl]urea]: 10 nM and greater than 10000 nM.
Taken in the same sequence, the figures for `CCCN(C(=O)NCCN(C)C)C(=O)[C@@H]1C[C@@H]2Cc3c(sc(N)c3C#N)C[C@H]2N(C)C1` [1-1, 1-{[(4aR,6R,8aR)-2-amino-3-cyano-8-methyl-4H,4aH,5H, 6H,7H,8H,8aH,9H-thieno[3,2-g]quinolin-6-yl]carbonyl}-3-[2-(dimethylamino)ethyl]-1-propylurea] were 6 nM and greater than 10000 nM.
The matching figures for `CCCCN(C(=O)NCCN(CC)CC)C(=O)[C@@H]1C[C@@H]2Cc3c(sc(N)c3C#N)C[C@H]2N(C)C1` [1-3, 1-{[(4aR,6R,8aR)-2-amino-3-cyano-8-methyl-4H,4aH,5H,6H,7H,8H,8aH,9H-thieno[3,2-g]quinolin-6-yl]carbonyl}-1-butyl-3-[2-(diethylamino)ethyl]urea]: 7 nM and greater than 10000 nM.
`CCN(C(=O)NCC(C)(C)CN(C)C)C(=O)[C@@H]1C[C@@H]2Cc3c(sc(N)c3C#N)C[C@H]2N(C)C1` [1-4, 1-{[(4aR,6R,8aR)-2-amino-3-cyano-8-methyl-4H,4aH,5H,6H,7H,8H,8aH,9H-thieno[3,2-g]quinolin-6-yl]carbonyl}-3-[3-(dimethylamino)-2,2-dimethylpropyl]-1-ethlylurea]: the EC50 is 3 nM in assay [1] and greater than 10000 nM in assay [2] (setting [3]).
Taken in the same sequence, the figures for `CCN(C(=O)N[C@@H](C)CN(C)C)C(=O)[C@@H]1C[C@@H]2Cc3c(sc(N)c3C#N)C[C@H]2N(C)C1` [1-57, 1-{[(4aR,6R,8aR)-2-amino-3-cyano-8-methyl-4H,4aH,5H,6H, 7H,8H,8aH,9H-thieno[3,2-g]quinolin-6-yl]carbonyl}-3-[(2S)-1-(dimethylamino)propan-2-yl]-1-ethylurea] were 5 nM and greater than 10000 nM.
The matching figures for `CCN(C(=O)NCCN(C)C)C(=O)[C@@H]1C[C@@H]2Cc3c(sc(N)c3C#N)C[C@H]2N(C)C1` [1-108, 1-{[(4aR,6R,8aR)-2-amino-3-cyano-8-methyl-4H,4aH,5H,6H,7H,8H,8aH,9H-thieno[3,2-g]quinolin-6-yl]carbonyl}-3-[2-(dimethylamino)ethyl]-1-ethylurea]: 6 nM and greater than 10000 nM.
In the case of `CCCN(CCC)CCc1cccc2c1CC(=O)N2` [Ropinirole, ropinirole, reference compound], the EC50 in assay [1] worked out at 892 nM; in assay [2] it was 2590 nM.

Values taken from patent US9138434B2, “Octahydrothienoquinoline derivative, pharmaceutical composition comprising derivative, and use of these” (KISSEI PHARMACEUTICAL CO., LTD., priority 2011, dated 2015).
